Assay results: PubChem BioAssay AID330 (DTP/NCI, 2004)
Several values for one entry are separate records, joined by “and”; a condition that tells them apart may be missing. Equal entries are not always repeated. Toxic doses and inconclusive results are not listed. The calls were made as follows: active = survival T/C of 150% or more; inactive = T/C below 125% in these data.

Tested on: P388 leukemia ip, CD2F1 mice, survival T/C
Test: NCI In Vivo Anticancer Drug Screen. Data for tumor model P388 Leukemia (intraperitoneal) in CD2F1 (CDF1) mice
Details: endpoint: median survival time, higher = longer survival
How it was run: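 Mice carrying the transplanted tumor received test compound or vehicle. Survival was recorded in each group, and the value is the treated-group measurement divided by that of the vehicle-treated control group.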

[1] = dose: 50.0 mg/kg/injection, schedule: Q01DX005 (ip), vehicle: saline with Tween-80
[2] = dose: 100.0 mg/kg/injection, schedule: Q01DX005 (ip), vehicle: saline with Tween-80
[3] = dose: 200.0 mg/kg/injection, schedule: Q01DX005 (ip), vehicle: saline with Tween-80
[4] = dose: 50.0 mg/kg/injection, schedule: Q01DX005 (ip), vehicle: Klucel (hydroxypropylcellulose) (HPC)
[5] = dose: 100.0 mg/kg/injection, schedule: Q01DX005 (ip), vehicle: Klucel (hydroxypropylcellulose) (HPC)
[6] = dose: 200.0 mg/kg/injection, schedule: Q01DX005 (ip), vehicle: Klucel (hydroxypropylcellulose) (HPC)
[7] = dose: 12.5 mg/kg/injection, schedule: Q01DX009 (ip), vehicle: saline with Tween-80
[8] = dose: 25.0 mg/kg/injection, schedule: Q01DX009 (ip), vehicle: saline with Tween-80
[9] = dose: 50.0 mg/kg/injection, schedule: Q01DX009 (ip), vehicle: saline with Tween-80
[10] = dose: 50.0 mg/kg/injection, schedule: Q01DX005 (ip), vehicle: saline
[11] = dose: 100.0 mg/kg/injection, schedule: Q01DX005 (ip), vehicle: saline
[12] = dose: 100.0 mg/kg/injection, schedule: Q01DX001 (ip), vehicle: saline with Tween-80
[13] = dose: 400.0 mg/kg/injection, schedule: Q01DX001 (ip), vehicle: saline with Tween-80

Measured: T/C

COc1cc2c(c(OC)c1OC)-c1ccc(O)c(=O)cc1C(N)CC2 (stereo not given)
inactive: dose: 3.12 mg/kg/injection, schedule: Q01DX008 (ip), vehicle: saline 101 % of control and 97 % of control | dose: 6.25 mg/kg/injection, schedule: Q01DX008 (ip), vehicle: saline 100 % of control and 102 % of control | dose: 12.5 mg/kg/injection, schedule: Q01DX008 (ip), vehicle: saline 102 % of control and 105 % of control | dose: 25.0 mg/kg/injection, schedule: Q01DX008 (ip), vehicle: saline 102 % of control and 105 % of control | dose: 50.0 mg/kg/injection, schedule: Q01DX008 (ip), vehicle: saline 105 % of control and 110 % of control | dose: 100.0 mg/kg/injection, schedule: Q01DX008 (ip), vehicle: saline 109 % of control and 113 % of control

CN(C)C(=S)C(C)(C)C
inactive: [1] 111 % of control | [2] 103 % of control | [3] 106 % of control

COC(=O)C12CC(CCC1C13CCC4(OCCO4)C(C)(C)C1C(=O)OC3)C(C)C2O (stereo not given)
inactive: dose: 100.0 mg/kg/injection, schedule: Q04DX002 (ip), vehicle: saline with Tween-80 97 % of control | dose: 200.0 mg/kg/injection, schedule: Q04DX002 (ip), vehicle: saline with Tween-80 94 % of control | dose: 400.0 mg/kg/injection, schedule: Q04DX002 (ip), vehicle: saline with Tween-80 100 % of control

Cc1cc2nnc(C)n2c(C)n1
inactive: dose: 100.0 mg/kg/injection, schedule: Q04DX003 (ip), vehicle: saline 95 % of control | dose: 200.0 mg/kg/injection, schedule: Q04DX003 (ip), vehicle: saline 96 % of control | dose: 400.0 mg/kg/injection, schedule: Q04DX003 (ip), vehicle: saline 93 % of control

CCCC(NC(=O)OCc1ccccc1)C(=O)NC(Cc1c[nH]c2ccccc12)C(=O)O (stereo not given)
inactive: [4] 109 % of control | [5] 108 % of control | [6] 94 % of control

CCOC(=O)C(=CN(C)c1ccc(Cl)cc1)C(=O)OCC
inactive: dose: 6.25 mg/kg/injection, schedule: Q01DX009 (ip), vehicle: saline with Tween-80 102 % of control | [7] 94 % of control | [8] 103 % of control | dose: 200.0 mg/kg/injection, schedule: Q01DX009 (ip), vehicle: saline 97 % of control

C=CCn1cnc2c(=S)nc[nH]c21
inactive: [7] 104 % of control | [8] 104 % of control | [9] 109 % of control | dose: 100.0 mg/kg/injection, schedule: Q04DX003 (ip), vehicle: saline with Tween-80 109 % of control | dose: 200.0 mg/kg/injection, schedule: Q04DX003 (ip), vehicle: saline with Tween-80 100 % of control

CCN(CC)C(C)C(=O)c1ccc2cc(Br)c3ccccc3c2c1 (stereo not given)
inactive: [10] 109 % of control | [11] 113 % of control

CCS(=O)(=O)[O][Sn]([CH2]C)([CH2]C)[O]S(=O)(=O)CC
inactive: dose: 1.56 mg/kg/injection, schedule: Q04DX003 (ip), vehicle: saline 107 % of control | dose: 3.12 mg/kg/injection, schedule: Q04DX003 (ip), vehicle: saline 110 % of control | dose: 6.25 mg/kg/injection, schedule: Q04DX003 (ip), vehicle: saline 116 % of control and 121 % of control

CC1=N/C(=C\C=C\c2ccccc2)C(=O)O1
inactive: [10] 104 % of control | [11] 101 % of control | dose: 200.0 mg/kg/injection, schedule: Q01DX005 (ip), vehicle: saline 103 % of control

CSC1=NC=C(C#N)C2=NC(c3cccs3)NN12 (stereo not given)
inactive: dose: 60.0 mg/kg/injection, schedule: Q01DX005 (ip), vehicle: saline with Tween-80 118 % of control | dose: 120.0 mg/kg/injection, schedule: Q01DX005 (ip), vehicle: saline with Tween-80 99 % of control | dose: 240.0 mg/kg/injection, schedule: Q01DX005 (ip), vehicle: saline with Tween-80 96 % of control

COC(=O)C(O)(C(=O)OC)C1=C(N)C(=O)c2ccccc2C1=O
inactive: [10] 111 % of control | [11] 123 % of control

Clc1ccc2c(c1)CN1Cc3cc(Cl)ccc3C2C1
inactive: [12] 92 % of control | [13] 90 % of control

Cc1ccc(-n2c(=S)n(-c3ccccc3C)c3nc4ccccc4nc2/c3=N\Nc2ccc(Cl)cc2)cc1
inactive: [1] 92 % of control | [2] 88 % of control | [3] 95 % of control

CC1(C)OC(=O)N=C1c1ccc(Br)cc1
inactive: dose: 60.0 mg/kg/injection, schedule: Q01DX005 (ip), vehicle: Klucel (hydroxypropylcellulose) (HPC) 100 % of control | dose: 120.0 mg/kg/injection, schedule: Q01DX005 (ip), vehicle: Klucel (hydroxypropylcellulose) (HPC) 104 % of control

COc1cc(CCN(C)C)c(C2C(=O)c3ccc4c(c3C2=O)OCO4)cc1OC (stereo not given)
inactive: dose: 0.15 mg/kg/injection, schedule: Q01DX005 (ip), vehicle: Klucel (hydroxypropylcellulose) (HPC) 103 % of control | dose: 0.3 mg/kg/injection, schedule: Q01DX005 (ip), vehicle: Klucel (hydroxypropylcellulose) (HPC) 104 % of control | dose: 0.6 mg/kg/injection, schedule: Q01DX005 (ip), vehicle: Klucel (hydroxypropylcellulose) (HPC) 100 % of control | dose: 1.2 mg/kg/injection, schedule: Q01DX005 (ip), vehicle: Klucel (hydroxypropylcellulose) (HPC) 99 % of control

Cc1ccc(Br)cc1CCO
inactive: [4] 98 % of control and 97 % of control | [5] 99 % of control and 100 % of control | [6] 100 % of control and 120 % of control

CN(C)CCCNc1ccc(NCCCN(C)C)c2c1C(=O)c1ccccc1C2=O
inactive: dose: 3.75 mg/kg/injection, schedule: Q01DX009 (ip), vehicle: saline 100 % of control | dose: 7.5 mg/kg/injection, schedule: Q01DX009 (ip), vehicle: saline 102 % of control | dose: 12.5 mg/kg/injection, schedule: Q01DX009 (ip), vehicle: water 104 % of control | dose: 15.0 mg/kg/injection, schedule: Q01DX009 (ip), vehicle: saline 102 % of control | dose: 25.0 mg/kg/injection, schedule: Q01DX009 (ip), vehicle: water 103 % of control | dose: 30.0 mg/kg/injection, schedule: Q01DX009 (ip), vehicle: saline 100 % of control | dose: 60.0 mg/kg/injection, schedule: Q01DX009 (ip), vehicle: saline 100 % of control

CCCCC#CCOCC(O)CCl (stereo not given)
inactive: dose: 12.5 mg/kg/injection, schedule: Q01DX009 (ip), vehicle: Klucel (hydroxypropylcellulose) (HPC) 100 % of control | dose: 25.0 mg/kg/injection, schedule: Q01DX009 (ip), vehicle: Klucel (hydroxypropylcellulose) (HPC) 100 % of control | dose: 50.0 mg/kg/injection, schedule: Q01DX009 (ip), vehicle: Klucel (hydroxypropylcellulose) (HPC) 98 % of control | dose: 100.0 mg/kg/injection, schedule: Q01DX009 (ip), vehicle: Klucel (hydroxypropylcellulose) (HPC) 100 % of control | dose: 200.0 mg/kg/injection, schedule: Q01DX009 (ip), vehicle: Klucel (hydroxypropylcellulose) (HPC) 103 % of control

CCCCCCCCCCCCCCCCC/C=C1\CC(=O)OC1=O
inactive: [8] 103 % of control | [9] 97 % of control | dose: 100.0 mg/kg/injection, schedule: Q01DX009 (ip), vehicle: saline with Tween-80 89 % of control

C=CCC(C)/C(=N\[N+](C)(C)C)c1ccccc1 (stereo not given)
inactive: dose: 12.5 mg/kg/injection, schedule: Q01DX001 (ip), vehicle: saline 100 % of control | dose: 25.0 mg/kg/injection, schedule: Q01DX001 (ip), vehicle: saline 106 % of control | dose: 50.0 mg/kg/injection, schedule: Q01DX001 (ip), vehicle: saline 99 % of control

Oc1ccc2ccccc2c1C=Nc1ccc(N=Cc2c(O)ccc3ccccc23)cc1
inactive: [12] 91 % of control | dose: 200.0 mg/kg/injection, schedule: Q01DX001 (ip), vehicle: saline with Tween-80 90 % of control | [13] 91 % of control
